Source: patent publication US20160346266A1, “REDUCTION OR PREVENTION OF ALCOHOL REACTION WITH DIETARY SUPPLEMENTS” (NOGLO LLC, priority 2012, published 2016)

Assays:
glutathione = details: supplementation, two weeks; cited from earlier work
[1] = tested on: volunteers who experience all symptoms of the alcohol reaction; experiment: Studies in individuals (Example 5): symptoms of the alcohol reaction after two standard alcohol beverages; format: in vivo, human; details: Subject 4; 1500 mg daily for two weeks + dose one hour before two standard alcohol beverages
Experimental: In order to evaluate the efficacy of certain embodiments of the invention, subjects took various forms of the supplements daily for two weeks. The subjects then consumed two standard alcohol beverages and their symptoms were evaluated. One hour prior to drinking the alcohol beverages, the subjects also consumed another dose of the formulation. Overt physical symptoms and self-reported physical symptoms were used as assessments for the alcohol reaction. These experimental tests include eleven subjects. All experimental subjects were unpaid volunteers who experience all symptoms of the alcohol reaction. The following symptoms were assessed: facial redness, heart rate, self-evaluated body temperature, headache, nausea, and general physical discomfort. These are symptoms of the alcohol reaction that have all been directly linked with an increase in blood acetaldehyde.

NAD = details: nicotinamide supplementation; one study; cited from earlier work

Structure (SMILES) | increase levels of glutathione (glutathione) | facial redness [1] | heart rate [1] | raising NAD concentrations (NAD)
O=C1O[C@H]([C@@H](O)CO)C(O)=C1O [Vitamin C] | 50% |  |  | 
NC(=O)c1cccnc1 [nicotinamide] |  | reductions | reductions | 24 fold
